The values below come from US20040121994A1, “Novel amides that activate soluble guanylate cyclase” (priority 2002, published 2004).

The target of the assay is T1, soluble guanylate cyclase (sGC), α1 and β1 subunits of guanylate cyclase expressed in Sf9 cells (Homo sapiens, UniProt Q02108+Q02153).
T1 construct: made in house; host or cells: Sf9 insect cells (baculovirus co-infection)
T1 sequence (Q02108 1-690): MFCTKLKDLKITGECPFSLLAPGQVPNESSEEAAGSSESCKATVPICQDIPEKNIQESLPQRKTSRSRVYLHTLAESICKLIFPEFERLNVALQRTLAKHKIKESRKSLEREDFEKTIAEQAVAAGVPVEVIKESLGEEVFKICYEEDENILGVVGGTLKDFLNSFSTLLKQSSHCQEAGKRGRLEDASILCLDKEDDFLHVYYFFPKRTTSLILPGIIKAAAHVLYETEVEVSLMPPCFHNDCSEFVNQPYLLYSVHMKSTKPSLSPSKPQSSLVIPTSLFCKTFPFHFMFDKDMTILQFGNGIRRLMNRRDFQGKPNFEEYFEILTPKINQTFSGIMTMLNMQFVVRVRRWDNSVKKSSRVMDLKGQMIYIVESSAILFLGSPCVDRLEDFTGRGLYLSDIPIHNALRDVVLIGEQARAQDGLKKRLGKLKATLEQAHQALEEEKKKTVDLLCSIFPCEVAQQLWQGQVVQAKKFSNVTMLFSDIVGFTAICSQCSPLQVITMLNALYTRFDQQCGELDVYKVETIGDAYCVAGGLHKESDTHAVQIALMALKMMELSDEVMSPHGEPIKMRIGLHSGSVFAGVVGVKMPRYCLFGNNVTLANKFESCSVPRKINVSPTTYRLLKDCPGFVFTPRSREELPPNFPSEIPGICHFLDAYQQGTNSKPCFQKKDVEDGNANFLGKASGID
T1 sequence (Q02153 1-619): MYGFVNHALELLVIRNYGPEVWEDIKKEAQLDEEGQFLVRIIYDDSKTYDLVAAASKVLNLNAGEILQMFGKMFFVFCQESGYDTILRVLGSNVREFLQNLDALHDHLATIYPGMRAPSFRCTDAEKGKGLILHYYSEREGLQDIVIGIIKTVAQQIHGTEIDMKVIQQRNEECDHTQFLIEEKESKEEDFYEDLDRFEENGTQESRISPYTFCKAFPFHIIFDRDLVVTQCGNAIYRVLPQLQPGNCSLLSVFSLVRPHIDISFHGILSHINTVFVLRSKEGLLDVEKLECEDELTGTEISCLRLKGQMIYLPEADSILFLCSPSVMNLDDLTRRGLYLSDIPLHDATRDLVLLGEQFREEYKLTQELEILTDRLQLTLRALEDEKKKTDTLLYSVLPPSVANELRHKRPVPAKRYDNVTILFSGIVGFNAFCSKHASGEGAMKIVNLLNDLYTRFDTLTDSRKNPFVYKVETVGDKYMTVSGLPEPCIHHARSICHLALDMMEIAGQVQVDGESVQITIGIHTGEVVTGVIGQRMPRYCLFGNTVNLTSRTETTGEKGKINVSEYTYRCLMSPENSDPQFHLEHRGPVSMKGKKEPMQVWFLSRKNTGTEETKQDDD
Description: Guanylate cyclase assay (formation of cyclic GMP from GTP). Format: biochemical. Particulars: for Mean activation at 100 μM: (activity of compound at 100 μM with 1 μM SNP)−(activity of compound at 100 μM)/(activity of SNP at 1 μM)−(basal activity of sGC); for Mean efficacy of compound combined with 1 μM of SNP, [%]: compound at 100 μM with 1 μM sodium nitro prusside (SNP); for Mean efficacy of compound combined with 1 μM of SNP, [%] / Emax at 100 µM: normalized with the activity of 100 μM YC-1 (without SNP) as 100%; for Emax at 100 µM: compound at 100 μM without SNP, read-out: Mean basal efficacy of compound alone at 100 μM, [%]. Here is the method: Sf9 cells were cultured in Sf-90011 medium supplemented with 10% (v/v) fetal calf serum at 28° C. to give a count of 6×10^5 cells/ml. The cells were then infected with a mixture of the virus stocks for the α1 and β1 subunits of guanylate cyclase at a multiplicity of infection of 0.1 pfu/cell. The cells were harvested 72 hours after infection and were pelleted by centrifugation. The resulting cell pellets were homogenized with Polytron homogenizer in 3 volumes of 20 mM Tris-HCl (pH 7.6) containing 1 mM EDTA, 5 mM dithiothreitol, 90 mM NaCl, 10% glycerol, and protease inhibitors mix (Roche Molecular Biochemicals). The homogenate was centrifuged at 50,000×g for 60 minutes and the supernatant was aliquotted and stored at −80° C.
Compounds of the present invention were dissolved in DMSO to make 100 mM and saved as stocks at −20° C. When compounds were tested, prepared 10-fold concentrated solutions with 10% DMSO. Then added 10 μl of 10-fold concentrated compound solutions to the reaction mixture of total 100 μl.
Guanylate cyclase activity was measured by the formation of cyclic GMP from GTP in a total volume of 100 μl. Guanylate cyclase-expressed Sf9 cell high-speed supernatant was used as an enzyme source for the assay. The reaction mixture containing 0.1 μl enzyme (Sf9 high-speed sup), compound solution, 50 mM Tris-HCl (pH 7.6), 4 mM MgCl2, 0.5 mM IBMX, 15 mM creatine phosphate, 20 μg creatine phosphokinase, 0.1% BSA and 1 mM GTP was incubated at 37° C. for 15 minutes. After the reaction, 0.9 ml of 50 mM sodium acetate buffer (pH 5.8) was added followed by boiling for 3 minutes to stop the reaction. The solution was centrifuged at 3000 rpm for 15 minutes at room temperature and cyclic GMP in 20 μl of the resulting supernatant was measured according to the protocol of Amersham cyclic GMP enzymeimmunoassay system (purchased from Sigma, catalogue number RPN 226).
Compounds of the present invention were tested at 100 μM with and without 1 μM sodium nitro prusside (SNP). 1-Benzyl-3-hydroxymethyl-2-furylindazole (YC-1) was included as a standard for each assay. The data was normalized with the activity of 100 μM YC-1 (without SNP) as 100%. Mean basal efficacy, in Table 1, was expressed as a percentage of 100 μM YC-1 (without SNP).
The mean activation, in Table 1, was calculated based on the formula: (activity of compound of the present invention at 100 μM with 1 μM SNP)−(activity of compound of the present invention at 100 μM)/(activity of SNP at 1 μM)−(basal activity of sGC).

Take `CC(CC(=O)N(C)C1CCN(C)CC1)c1ccccc1Sc1ccc(Cl)cc1` (centres unmarked) [Example 10, 3-{2-[(4-chlorophenyl)thio]phenyl}-N-methyl-N-(1-methyl-4-piperidinyl)butanamide]: the “Mean activation at 100 μM” value is listed as 1.6; the “Mean efficacy of compound combined with 1 μM of SNP, [%]” value (“Mean efficacy … [%]” below) amounted to 7%; the Emax at 100 µM worked out at 0%.
For the compound `Cc1ccc(Sc2ccccc2/C=C/C(=O)NC2CCCCC2O)cc1` (centres unmarked) [Example 47, (2E)-N-(2-hydroxycyclohexyl)-3-{2-[(4-methylphenyl)thio]phenyl}acrylamide], the “Mean activation at 100 μM” value was determined as 2.8; the “Mean efficacy … [%]” value is on record as 44%; the Emax at 100 µM amounted to 16%.
The like results for `Cc1cccc(Sc2ccccc2/C=C/C(=O)NC2CCC(O)CC2)c1` (centres unmarked) [Example 52, (2E)-N-(4-hydroxycyclohexyl)-3-{2-[(3-methylphenyl)thio]phenyl}acrylamide] were, in that order, 2.7, 50% and 11%.
The like results for `CC(C)CCSc1ccccc1/C=C/C(=O)NCCCO` [Example 57, (2E)-N-(3-hydroxypropyl)-3-{2-[(3-methylbutyl)thio]phenyl}acrylamide] were, in that order, 8.4, 303% and 200%.
In the same order, the values of `O=C(/C=C/c1ccccc1Sc1ccccc1)NC1CCCCC1O` (centres unmarked) [Example 46, (2E)-N-(2-hydroxycyclohexyl)-3-[2-(phenylthio)phenyl]acrylamide] are 4.3, 121% and 54%.
On to `CC(O)CNC(=O)/C=C/c1ccccc1Sc1ccc(Cl)cc1` (centres unmarked) [Example 37, (2E)-3-{2-[(4-chlorophenyl)thio]phenyl}-N-(2-hydroxypropyl)acrylamide], for which the “Mean activation at 100 μM” value stood at 30.6; the “Mean efficacy … [%]” value was 405%; the Emax at 100 µM was 70%.
In the same order, the values of `Cc1ccc(Sc2ncccc2/C=C/C(=O)NC2CCC(O)CC2)cc1` (centres unmarked) [Example 15, (2E)-N-(4-hydroxycyclohexyl)-3-{2-[(4-methylphenyl)thio]-3-pyridinyl}acrylamide] are 4.7, 204% and 126%.
Take `O=C(/C=C/c1cccnc1Sc1ccccc1)NC1CCC(O)CC1` (centres unmarked) [Example 19, (2E)-N-(4-hydroxycyclohexyl)-3-[2-(phenylthio)-3-pyridinyl]acrylamide]: the “Mean activation at 100 μM” value stood at 4.8; the “Mean efficacy … [%]” value was found to be 120%; the Emax at 100 µM was 37%.
With `O=C(/C=C/c1cccnc1Sc1ccc(Cl)cc1Cl)NC1CCC(O)CC1` (centres unmarked) [Example 17, (2E)-3-{2-[(2,4-dichlorophenyl)thio]-3-pyridinyl}-N-(4-hydroxycyclohexyl)acrylamide], the “Mean efficacy … [%]” value amounted to 138% and the Emax at 100 µM stood at 38%.
As for `O=C(CCc1ccccc1Sc1ccc(Cl)cc1)NC1CCC(O)CC1` (centres unmarked) [Example 4, 3-{2-[(4-chlorophenyl)thio]phenyl}-N-(4-hydroxycyclohexyl)propanamide], the “Mean activation at 100 μM” value amounted to 2.6; the “Mean efficacy … [%]” value came to 28%; the Emax at 100 µM stood at 1%.
`CC(CCCC(C)(C)O)NC(=O)CCc1ccccc1Sc1ccc(Cl)cc1` (centres unmarked) [Example 2, 3-{2-[(4-chlorophenyl)thio]phenyl}-N-(5-hydroxy-1,5-dimethylhexyl)propanamide]: the “Mean activation at 100 μM” value is 2.6; the “Mean efficacy … [%]” value is given as 84%; the Emax at 100 µM turned out to be 9%.
`O=C(/C=C/c1cccnc1Sc1ccc(Cl)cc1)NC1CCC(O)CC1` (centres unmarked) [Example 16, (2E)-3-{2-[(4-chlorophenyl)thio]-3-pyridinyl}-N-(4-hydroxycyclohexyl)acrylamide]: the “Mean activation at 100 μM” value turned out to be 3.6; the “Mean efficacy … [%]” value came out at 68%; the Emax at 100 µM worked out at 11%.
